This is an account of results in paper PMC7318243, “Computationally Empowered Workflow Identifies Novel Covalent Allosteric Binders for KRAS^G12C” (Chemmedchem, 2020).

For one assay, the system named is active RAS. Put plainly: Cellular assay for RAS activation (G-LISA). Format: cell-based. As to conditions: 24 h treatment; read-out: Cellular IC50 (inhibition of active RAS formation). How it is done: SOS1CAT. All steps of the assay were performed at 20 °C. A volume of 2.5 µL of the KRASG12C working solution was added to all wells of the test plate using a Multidrop dispenser (Thermo LabSystems). After 180 min, 2.5 µL of the SOS1CAT working solution was added to all wells, except for the inhibitor control solution wells. After 30 min incubation, HTRF was measured.
In the KRASWT activation by SOS1cat assay, human SOS1CAT mediated loading of GST-KRASWT– GDP was quantified with a fluorescent GTP analogue. The assay was performed as described above for the KRASG12C activation. GST-KRASG12C was replaced by GST-KRASWT, used at a final […]
3.4 Covalent binding assay by mass spectrometry
The percentage of covalent adduct formation at KRAS G12C was determined by intact mass determination. To this end, 25 µM recombinant KRAS mutant (G12C , C51S, C80L, C118S) was incubated with 25 µM compound (1% v/v DMSO final concentration) in 50 mM Tris, pH 8.0, 50 mM NaCl at room temperature for 2 h. Reaction mixture (20 µL) was acidified by addi tion of 4% v/v TFA (4 µL). […] Spectra were analyzed by using MassLynx v4.1 software and deconvoluted with the MaxEnt1 algorithm. Percent conversion was determined by the ratio of signal intensities of […] and KRASG12C + inhibitor. […]
Using the G-LISA Kit (Cytoskeleton BK131, RAS Activation Assay), 50000 cells are seeded in a 96 well plate for 72 h at 37 °C (10% FBS, DMEM/Ham's F-12, 2 mM L-Glutamine). […] Finally, the content of active R AS is measured by detecting the absorbance at 490 nm. […]
The percentage of covalent adduct formation at KRASG12C was determined for compounds 1, 2 and 13 by intact mass determination. […]
Liquid chromatography-mass spectrometry (LC-MS) analysis was performed using a Waters SYNAPT G2-S quadrupole time-of-flight mass spectrometer connected to a Waters nanoAcquity UPLC system. […] Spectra were analyzed by using MassLynx v4.1 software and deconvoluted with the MaxEnt1 algorithm. Percent of conversion was determined by the ratio of signal intensiti es of apo-KRAS and KRAS + inhibitor.

For the next assay, the target named is T1, KRAS^G12C (Homo sapiens, UniProt P01116, G12C).
T1 construct: KRASG12C (aa 1–169, G12C) were produced for the biochemical assay; made in house
The assay can be described thus: Biochemical assay: KRAS^G12C activation by SOS1CAT (HTRF, fluorescent GTP loading). The settings on record: 180 min pre-incubation with KRAS before addition of SOS1. How it is done:
One of the most synthetically accessible compounds, 1,6‐naphthyridin‐5(6H)‐one (1), was prepared (Table 1; Scheme S1). Structurally close to 1, isoquinolin‐1(2H)‐one 2 derivatives were also considered for the exploration of structure‐activity relationships (SAR). To measure the proportion of inhibitor reacting with Cys12 of the KRAS^G12C mutant, the bound/unbound protein ratio was quantified by mass spectrometry (MS). Then, the inhibition potency of these compounds towards KRAS^G12C was evaluated in biochemical assays measuring the activation of GDP‐bound KRAS^G12C or KRAS^WT by SOS1.19 […]
3.3 Biochemical activity assays
Measurement of (i) KRASG12C activation by SOS1CAT and (ii) wild-type KRAS activation by SOS1CAT was performed following the previously described protocol, [19] with a pre-incubation time of the test compound with KRAS proteins extended to 180 min before addi tion of SOS1.
This assay quantifies SOS1 CAT mediated loading of KRAS G12C–GDP with a fluorescent GTP analogue. Detection of successful loading was achieved by measuring resonance energy transfer from anti-GST-terbium (FRET donor) bound to GST -KRASG12C to the loaded fluorescent GTP analogue (FRET acceptor). The fluorescent GTP analogue EDA –GTP–DY-647P1 [2'/3'-O-(2-aminoethyl-carbamoyl)guanosine-5'-triphosphate labelled with DY-647P1 (Dyomics GmbH, Germany)] was synthesized by Jena Bioscience (Germany) a nd supplied as a 1 mM aqueous solution. A KRASG12C working solution was prepared in assay buffer [10 mM HEPES pH 7.4 (AppliChem), 150 mM NaCl (Sigma), 5 mM MgCl2 (Sigma), 1 mM DTT (Thermo Fisher), 0.05% BSA Fraction V pH 7.0 (ICN Biomedicals), 0.0025% (v/v) Igepal (Sigma)] containing 100 nM GST-KRASG12C and 2 nM anti-GST-terbium (Cisbio, France). A SOS1 CAT working solution was prepared in an assay buffer containing 20 nM SOS1CAT and 200 nM EDA–GTP–DY-647P1. An inhibitor control solution was prepared in an assay buffer containing 200 nM EDA–GTP–DY-647P1 without […]
SOS1CAT. All steps of the assay were performed at 20 °C. A volume of 2.5 µL of the KRASG12C working solution was added to all wells of the test plate using a Multidrop dispenser (Thermo LabSystems). After 180 min, 2.5 µL of the SOS1CAT working solution was added to all wells, except for the inhibitor control solution wells. After 30 min incubation, HTRF was measured. […]
SYNAPT G2-S quadrupole time-of-flight mass spectrometer connected to a Waters nanoAcquity UPLC system. Samples were loaded on a 2.1 x 5 mm mass prep C4 guard column (Waters) and desalted with a short grad ient (3 min) of increasing concentrations of acetonitrile at a flow rate of 100 µL/min. Spectra were analyzed by using MassLynx v4.1 software and deconvoluted with the MaxEnt1 algorithm. Percent of conversion was determined by the ratio of signal intensiti es of apo-KRAS and KRAS + inhibitor.
(In general: TR-FRET usually uses a lanthanide donor and a delayed reading to cut background.)

T1 sequence (P01116 1-169 isoform P01116-2 G12C): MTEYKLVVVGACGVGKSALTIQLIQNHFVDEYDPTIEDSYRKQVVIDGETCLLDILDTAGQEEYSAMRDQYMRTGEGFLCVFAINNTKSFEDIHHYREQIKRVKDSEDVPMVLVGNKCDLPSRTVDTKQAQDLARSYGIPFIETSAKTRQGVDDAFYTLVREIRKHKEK

With `C=CC(=O)N1CCC(c2cc3ccc(-c4c(O)cccc4F)cc3c(=O)[nH]2)C1` (stereo not drawn) [Compound 2, 7-(2-Fluoro-6-hydroxyphenyl)-3-[1-(prop-2-enoyl)pyrrolidin-3-yl]isoquinolin-1(2H)-one], the IC50 (usually the concentration needed to halve the response being measured) in the assay with active RAS is greater than 30 µM; at KRAS^G12C, 4.7 µM.
For `C=CC(=O)N1CCC(c2cc3cnc(-c4c(O)cccc4F)cc3c(=O)[nH]2)C1` (stereo not drawn) [Compound 13, 7-(2-Fluoro-6-hydroxyphenyl)-3-[1-(prop-2-enoyl)pyrrolidin-3-yl]-2,6-naphthyridin-1(2H)-one] the same measures were 22 µM and 1.3 µM.
Regarding `C=CC(=O)N1CCC(c2cc3ncc(-c4c(O)cccc4F)cc3c(=O)[nH]2)C1` (stereo not drawn) [Compound 1, 3-(2-Fluoro-6-hydroxyphenyl)-7-[1-(prop-2-enoyl)pyrrolidin-3-yl]-1,6-naphthyridin-5(6H)-one], the IC50 was greater than 30 µM in the assay on active RAS and 2.8 µM against KRAS^G12C.
